Source: patent publication US5635594A, “Gallinacins - antibiotic peptides” (University of California, Los Angeles, priority 1994, dated 1997)
Where no end group is shown, it is not given here.

system: Candida albicans strain 820; experiment: ultrasensitive radial diffusion assay in agarose gels, Candida; type: cell-based; conditions: underlay agar pH 7.4, overnight incubation, FIG. 5c
Description: Aliquots of these column fractions were dried by vacuum centrifugation, resuspended in a small volume (approximately 17 μl) of 0.01% HOAc and 5 μl samples were tested for antimicrobial activity against Escherichia coli ML-35, Listeria monocytogenes strain EGD and Candida albicans strain 820, by the ultrasensitive radial diffusion technique described by Lehrer, R. I. et al. J Immunol Meth (1991) 137:167-173. […] A 1 mm diameter clear zone around the sample well after overnight incubation corresponded to 10 units of microbicidal activity.
The radial diffusion assay in agarose gels described in Example 1 was also used to test the activity of the purified gallinacins. FIGS. 5a, 5b and 5c show the results against three test organisms in units described as above. Rabbit defensin (NP-1) and human defensin (HNP-1) were used as controls.

| Substance | antifungal activity against Candida albicans |
| --- | --- |
| Gal1: 39-residue antimicrobial peptide isolated from chicken neutrophils, six cysteines in three intramolecular disulfide bonds | effective |
| Gal1α: antimicrobial peptide isolated from chicken neutrophils; differs from Gal1 only in positions 10, 20 and 32 | effective |
| Gal2: 36-residue antimicrobial peptide isolated from chicken neutrophils, six cysteines in three intramolecular disulfide bonds (LFCKGGSCHFGGCPSHLIKVGSCFGFRSCCKWPWNA; not fully specified (residues 3, 8, 13, 23, 29, 30, bridges); also: native peptide: three intramolecular disulfides, pairing not given here) | relatively poor activity |
